Each structure is given as a SMILES string.

From patent US20260297105A1, “RAF-MEK PROTEIN COMPLEX MODULATORS AND METHODS OF USE THEREOF” (GANDEEVA THERAPEUTICS, INC., priority 2023, published 2026) come the findings set out here.

In experiment [1] the target is T1, MEK1 (Homo sapiens, UniProt Q02750).
T1 construct: purchased SignalChem M02-14H
The experiment can be described thus: MEK1 kinase cascade assay (ADP-Glo), inhibition of MEK1 kinase activity. Type of experiment: biochemical. The note with it: 25 nM BRAF, 6.25 nM MEK1, 0.5 μM ERK, 1 mM ATP; 20 min preincubation, 1 hr at 25° C.; read-out: BRAF ADP Glo kinase assay V3 (IC50). In a few lines:
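Cascade format with ADP-Glo read-out: BRAF (25 nM) and compound, 1% DMSO, 20 mins at 25° C, then MEK1 6.25 nM, ERK1 0.5 μM, ATP 1 mM for 1 hr at 25° C in HEPES pH 7.5 buffer with MgCl2, CHAPS and DTT. Percent inhibition, scaled between DMSO and 1 μM Trametinib, was fit by 4-parameter logistic to give IC50 (2 replicate wells).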
On the technique in general: ADP-Glo turns the ADP formed in a reaction into a luminescent signal.

For experiment [2], the system named is BRAF-MEK1. The experiment can be described thus: BRAF-MEK TR-FRET assay, stabilization of MEK1 and BRAF interaction. The format is binding. Conditions: 4 nM BRAF, 10 nM MEK, 100 μM ATP; 1 hr at 25° C.; read-out: BRAF-MEK TR-FRET Assay (EC50, fold stabilization). An outline of the steps: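 Read-out is fold stabilization (treated FRET ratio/DMSO, Em 665/620 nm), fit 4-parameter for EC50 from 2 replicates. Compounds sat with 4 nM GST-BRAF and 10 nM in-house His-MEK1 1 h at 25° C (Tris pH 7.5, MgCl2, 100 μM ATP), then detection antibodies 1 h.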
For orientation: In TR-FRET formats the signal depends on donor and acceptor labels being close together.

For experiment [3], the system named is NCI-H292 cells. Briefly: Cell viability assay (CellTiter-Glo), NCI-H292. The note with it: Homo sapiens, 72 hrs, read-out: Cell Viability Assay: IC50 Determination NCI-H292. Type of experiment: cell-based. The method, then:
Cell culture: HCTI 16, HT-29, and NCI-H292 cells were acquired from American Type Culture Collection (ATCC). HCT116 and HT-29 cells were maintained in ATCC-formulated McCoy's 5a Medium Modified supplemented with 10% fetal bovine serum, NCI-H292 cells were cultured in ATCC formulated RPMI-1640 supplemented with 10% fetal bovine serum. All cells were maintained at 37° C., 5% CO2.
Efficacy of exemplary compounds in inhibition of cell viability: HCT116 and HT-29 cells were plated at 4,000 cells per well and NCI-H292 cells were plated at 2,000 cells per well in their respective media in 384-well white, TC-treated plates (Corning). After 24 hours of incubation, the cells were treated with vehicle (DMSO) or test compounds (0.1% DMSO in final volume) for 72 hrs. The plate was equilibrated at room temperature for 10 mins followed by addition of a 1:1 volume of CellTiter-Glo® reagent (Promega). The contents were mixed for 2 mins on an orbital shaker to induce lysis. The plate was incubated at room temperature for 10 mins to stabilize luminescent signal before measuring luminescence on a Cytation5 microplate reader (Agilent). % inhibition as a function of compound concentration from 3 replicate wells was fit with a 4-parameter logistic curve using GraphPad Prism or CDD Vault to derive IC50 values.
In this table, for the BRAF ADP Glo kinase assay, “A” indicates IC50 of less than 5 nM; “B” indicates IC50 of between 5 nM to 50 nM; and “C” indicates IC50 of between 50 nM to 500 nM. “D” indicates IC50 of greater than 500 nM. For the BRAF-MEK TR-FRET assay, “A” indicates EC50 of less than 50 nM; “B” indicates EC50 of between 50 nM to 200 nM; and “C” indicates EC50 of between 200 nM to 1 μM. “D′” indicates EC50 of greater than 1 μM. For the AlphaLisa P-ERK assay, “A” indicates IC50 of less than 1 nM; “B” indicates IC50 of between 1 nM to 10 nM; and “C” indicates IC50 of between 10 nM to 100 nM. “D” indicates IC50 of greater than 100 nM. For the cell viability assay, “A” indicates IC50 of less than 1 nM; “B” indicates IC50 of between 1 nM to 10 nM; and “C” indicates IC50 of between 10 nM to 100 nM. “D” indicates IC50 of greater than 100 nM.
In general terms: Cellular ATP, detected with luciferase, serves as a proxy for viable cell number.

T1 sequence (Q02750 whole entry): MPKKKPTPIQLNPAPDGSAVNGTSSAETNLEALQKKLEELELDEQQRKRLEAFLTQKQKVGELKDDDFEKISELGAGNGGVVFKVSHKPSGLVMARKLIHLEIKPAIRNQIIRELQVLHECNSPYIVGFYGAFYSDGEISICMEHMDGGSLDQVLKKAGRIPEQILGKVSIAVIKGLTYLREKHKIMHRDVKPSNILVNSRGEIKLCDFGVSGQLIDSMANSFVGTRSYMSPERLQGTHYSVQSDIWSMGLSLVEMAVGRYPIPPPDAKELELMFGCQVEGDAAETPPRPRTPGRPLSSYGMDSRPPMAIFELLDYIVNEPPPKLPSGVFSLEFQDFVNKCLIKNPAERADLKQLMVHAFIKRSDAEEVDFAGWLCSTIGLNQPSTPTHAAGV
T1 sequence (P15056 445-723 partner limits assumed): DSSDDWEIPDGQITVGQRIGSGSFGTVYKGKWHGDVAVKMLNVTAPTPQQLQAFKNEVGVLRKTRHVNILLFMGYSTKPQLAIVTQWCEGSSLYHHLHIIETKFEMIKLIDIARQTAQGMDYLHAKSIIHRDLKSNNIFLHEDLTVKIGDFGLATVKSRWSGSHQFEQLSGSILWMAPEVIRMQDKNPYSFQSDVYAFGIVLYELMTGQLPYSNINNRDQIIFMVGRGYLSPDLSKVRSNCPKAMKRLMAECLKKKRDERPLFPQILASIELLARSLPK

Broadly, the IC50 is the midpoint of a concentration-inhibition curve. For the compound `[2H]C1([2H])c2ccc(Oc3cccnn3)cc2OC(=O)N1Cc1cccc(NS(=O)(=O)N(C)C)c1F` [Compound 39, 3-{[3-(dimethylaminosulfonylamino)-2-fluorophenyl]methyl}-7-(3-pyridazinyloxy)(4,4-^2H2)-3,4-dihydro-2H-1,3-benzoxazin-2-one], the figures for the IC50 in experiment [1] and in experiment [3] were 0.005 to 0.05 µM and 0.001 to 0.01 µM, respectively. The EC50 in experiment [2] was below 0.05 µM.

In the case of `CNS(=O)(=O)Nc1nccc(CN2C(=O)Oc3cc(Oc4ncco4)cc(F)c3C23CCC3)c1F` [Compound 169, 5-fluoro-3-{[3-fluoro-2-(methylaminosulfonylamino)-4-pyridyl]methyl}-7-(1,3-oxazol-2-yloxy)-2H,3H-spiro[1,3-benzoxazine-4,1′-cyclobutan]-2-one], the results for the IC50 in experiment [1] and in experiment [3] were 0.005 to 0.05 µM and 0.001 to 0.01 µM, respectively. Also, the EC50 in experiment [2] was below 0.05 µM.

For the compound `O=C1Oc2cc(Oc3ncco3)c(F)cc2C2(CCC2)N1Cc1ccnc(NS(=O)(=O)C2CC2)c1F` [Compound 170, (cyclopropylsulfonyl)[3-fluoro-4-({6-fluoro-7-(1,3-oxazol-2-yloxy)-2-oxo-2H,3H-spiro[1,3-benzoxazine-4,1′-cyclobutan]-3-yl}methyl)-2-pyridyl]amine], the IC50 in experiment [1] lay within 0.005 to 0.05 µM; in experiment [3], 0.01 to 0.1 µM. Besides, the EC50 in experiment [2] was 0.2 to 1 µM.

Turning to `O=C1Oc2cc(Oc3ncco3)ccc2C2(CCC2)N1Cc1ccnc(NS(=O)(=O)C2CC2)c1F` [Compound 167, (cyclopropylsulfonyl)[3-fluoro-4-({7-(1,3-oxazol-2-yloxy)-2-oxo-2H,3H-spiro[1,3-benzoxazine-4,1′-cyclobutan]-3-yl}methyl)-2-pyridyl]amine], the IC50 in experiment [1] lay within 0.005 to 0.05 µM; in experiment [3], 0.01 to 0.1 µM. Also, the EC50 in experiment [2] is 0.05 to 0.2 µM.

On to `CNS(=O)(=O)Nc1cccc(CN2Cc3cc(C)c(OC(=O)N(C)C)cc3OC2=O)c1F` [Compound 112, 3-(2-fluoro-3-((N-methylsulfamoyl)amino)benzyl)-6-methyl-2-oxo-3,4-dihydro-2H-benzo[e][1,3]oxazin-7-yl dimethylcarbamate], for which the IC50 in experiment [1] is below 0.005 µM; in experiment [3], 0.001 to 0.01 µM. Moreover, the EC50 in experiment [2] lay within 0.2 to 1 µM.

With `CNS(=O)(=O)Nc1cccc(CN2C(=O)Oc3cc(Oc4cccnn4)cc(F)c3[C@@H]2C)c1F` (single isomer, unassigned) [Compound 56], the IC50 in experiment [1] lay within 0.005 to 0.05 µM; in experiment [3] it was 0.01 to 0.1 µM. In experiment [2], the EC50 lay within 0.2 to 1 µM.

Turning to `CNS(=O)(=O)Nc1cccc(CN2C(=O)Oc3cc(Oc4cccnn4)ccc3C2(C)C)c1F` [Compound 51, 3-({2-fluoro-3-[(methylsulfamoyl)amino]phenyl}methyl)-4,4-dimethyl-7-(pyridazine-3-yloxy)-3,4-dihydro-2H-1,3-benzoxazin-2-one], the IC50 lay in the range of 0.005 to 0.05 µM in experiment [1] and 0.01 to 0.1 µM in experiment [3]. The EC50 in experiment [2] was 0.2 to 1 µM.

`C[C@@H]1c2ccc(Oc3cccnn3)c(F)c2OC(=O)N1Cc1cccc(NS(=O)(=O)N(C)C)c1F` (single isomer, unassigned) [Compound 43]: the results for the concentration for half-maximal inhibition (IC50) in experiment [1] and in experiment [3] were below 0.005 µM and 0.001 to 0.01 µM, respectively. For the same compound, in experiment [2], the EC50 is below 0.05 µM.

In the case of `CN(C)C(=O)Oc1ccc2c(c1)OC(=O)N(Cc1cccc(NS(=O)(=O)N3CCC(F)C3)c1F)C2` (stereo not drawn) [Compound 113, 3-(2-fluoro-3-((3-fluoropyrrolidine)-1-sulfonamido)benzyl)-2-oxo-3,4-dihydro-2H-benzo[e][1,3]oxazin-7-yl dimethylcarbamate], the IC50 in experiment [1] fell in the range of 0.005 to 0.05 µM; in experiment [3], 0.001 to 0.01 µM. Besides, in experiment [2], the EC50 was in the range of 0.2 to 1 µM.

`CNS(=O)(=O)Nc1nccc(CN2C(=O)Oc3cc(Oc4ncco4)c(F)cc3C23CCC3)c1F` [Compound 165, 6-fluoro-3-{[3-fluoro-2-(methylaminosulfonylamino)-4-pyridyl]methyl}-7-(1,3-oxazol-2-yloxy)-2H,3H-spiro[1,3-benzoxazine-4,1′-cyclobutan]-2-one]: the IC50 in experiment [1] is below 0.005 µM; in experiment [3] it was 0.001 to 0.01 µM. Further, the EC50 in experiment [2] is below 0.05 µM.

`CN(C)C(=O)Oc1cc(F)c2c(c1)OC(=O)N(Cc1cccc(NS(=O)(=O)C3CC3)c1F)C2` [Compound 102, 3-(3-(cyclopropanesulfonamido)-2-fluorobenzyl)-5-fluoro-2-oxo-3,4-dihydro-2H-benzo[e][1,3]oxazin-7-yl dimethylcarbamate]: the IC50 in experiment [1] was 0.005 to 0.05 µM; in experiment [3] it was 0.001 to 0.01 µM. The EC50 in experiment [2] was in the range of 0.05 to 0.2 µM.

Take `CNS(=O)(=O)Nc1cccc(CN2C(=O)Oc3cc(OC(=O)N(C)C)ccc3C23CCC3)c1F` [Compound 38, 3-({2-fluoro-3-[(methylsulfamoyl)amino]phenyl}methyl)-2-oxo-2,3-dihydrospiro[1,3-benzoxazine-4,1′-cyclobutan]-7-yl N,N-dimethylcarbamate]: the results for the IC50 in experiment [1] and in experiment [3] were below 0.005 µM and below 0.001 µM, respectively. Also, in experiment [2], the EC50 is below 0.05 µM.

Take `CNS(=O)(=O)Nc1cccc(CN2C(=O)Oc3cc(Oc4ncco4)ccc3[C@@H]2C)c1F` (single isomer, unassigned) [Compound 78, (S)-3-({2-fluoro-3-(methylsulfamoyl)amino]phenyl}methyl)-4-methyl-7-(1,3-oxazol-2-yloxy)-3,4-dihydro-2H-1,3-benzoxazin-2-one or (R)-3-({2-fluoro-3-(methylsulfamoyl)amino]phenyl}methyl)-4-methyl-7-(1,3-oxazol-2-yloxy)-3,4-dihydro-2H-1,3-benzoxazin-2-one]: the IC50 in experiment [1] lay within 0.005 to 0.05 µM; in experiment [3], 0.01 to 0.1 µM. Also, in experiment [2], the EC50 was 0.2 to 1 µM.

Take `CNS(=O)(=O)Nc1nccc(CN2C(=O)Oc3cc(Oc4nccnn4)c(F)cc3C23CCC3)c1F` [Compound 166, 6-fluoro-3-{[3-fluoro-2-(methylaminosulfonylamino)-4-pyridyl]methyl}-7-(1,2,4-triazin-3-yloxy)-2H,3H-spiro[1,3-benzoxazine-4,1′-cyclobutan]-2-one]: the IC50 in experiment [1] was 0.005 to 0.05 µM; in experiment [3] it was 0.001 to 0.01 µM. In addition, the EC50 in experiment [2] was below 0.05 µM.

In the case of `CNS(=O)(=O)Nc1cccc(CN2C(=O)Oc3c(ccc(OC(=O)N(C)C)c3F)[C@@H]2C)c1F` (single isomer, unassigned) [Compound 103, (S)-8-fluoro-3-(2-fluoro-3-((N-methylsulfamoyl)amino)benzyl)-4-methyl-2-oxo-3,4-dihydro-2H-benzo[e][1,3]oxazin-7-yl dimethylcarbamate or (R)-8-fluoro-3-(2-fluoro-3-((N-methylsulfamoyl)amino)benzyl)-4-methyl-2-oxo-3,4-dihydro-2H-benzo[e][1,3]oxazin-7-yl dimethylcarbamate], the IC50 in experiment [1] lay in the range of 0.005 to 0.05 µM; in experiment [3], 0.001 to 0.01 µM. For the same compound, the EC50 in experiment [2] lay in the range of 0.2 to 1 µM.

On to `CNS(=O)(=O)Nc1cccc(CN2C(=O)Oc3c(ccc(OC(=O)N(C)C)c3F)C23COC3)c1F` [Compound 77, 8-fluoro-3-({2-fluoro-3-(methylsulfamoyl)amino]phenyl}methyl)-2-oxo-2,3-dihydrospiro[1,3-benzoxazine-4,3′-oxetan]-7-yl N,N-dimethyl carbamate], for which the IC50 in experiment [1] is 0.005 to 0.05 µM; in experiment [3], below 0.001 µM. In addition, in experiment [2], the EC50 was 0.05 to 0.2 µM.

On to `CNS(=O)(=O)Nc1cccc(CN2C(=O)Oc3cc(OC(=O)N(C)C)c(Cl)cc3[C@@H]2C)c1F` [Compound 108, (S)-6-chloro-7-(dimethylaminocarbonyloxy)-3-{[2-fluoro-3-(methylaminosulfonylamino)phenyl]methyl}-4-methyl-3,4-dihydro-2H-1,3-benzoxazin-2-one], for which the IC50 in experiment [1] is 0.005 to 0.05 µM; in experiment [3] it was below 0.001 µM. In addition, the EC50 in experiment [2] is 0.05 to 0.2 µM.
